≈ marks a conversion by molar mass, not a printed value.
Tests used:
E. faecalis ATCC 29212 = test: direct antimicrobial activity (disc-diffusion, MIC, MBC); assay type: cell-based; details: Enterococcus faecalis, ATCC29212
Outline: (§1)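 Testing of direct antimicrobial action relied on CLSI and EUCAST protocols, namely disc diffusion, MIC and cidal-concentration determinations. Each disc carried 0.4 mg of test agent.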

[1] = system: S. aureus ATCC 43300 MRSA; test: as above; assay type: cell-based; details: Staphylococcus aureus
Outline: as §1

S. aureus ATCC 6538P = test: as above; assay type: cell-based; details: Staphylococcus aureus, ATCC6538P
Outline: as §1

[2] = system: C. parapsilosis ATCC 22019; test: antifungal activity (disc-diffusion, MIC, MFC); assay type: cell-based, Candida parapsilosis; details: Lodderomyces parapsilosis, ATCC22019; fluconazole by Etest
Outline: as §1

[3] = system: C. guilliermondii IBA 155; test: antifungal activity (disc-diffusion, MIC, MFC); assay type: cell-based, Candida guilliermondii; details: Meyerozyma guilliermondii, IBA155; fluconazole by Etest
Outline: as §1

C. krusei ATCC 6258 = test: antifungal activity (disc-diffusion, MIC, MFC); assay type: cell-based, Candida krusei; details: Pichia kudriavzevii, ATCC6258; fluconazole by Etest
Outline: as §1

E. coli 76 KPC-2(+) = test: MIC of tested agent alone, microdilution; assay type: cell-based; details: Escherichia coli; read-out: MIC of agent alone
Outline: (§2)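 Broth microdilution checkerboard: β-lactam in seven two-fold dilutions (1–64 mg/L) against tested agent or PBA in three two-fold dilutions (4–16 mg/L). Antibiotic MICs were read at each agent level, with agent-alone MICs run in parallel by microdilution.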

E. coli 77 CMY-2(+) = test: MIC of tested agent alone, microdilution; assay type: cell-based; details: Escherichia coli; read-out: MIC of agent alone
Outline: as §2

[4] = system: K. pneumoniae 81 KPC-3(+); test: MIC of tested agent alone, microdilution; assay type: cell-based; details: Klebsiella pneumoniae; read-out: MIC of agent alone
Outline: as §2

[5] = system: K. pneumoniae 83 KPC-3(+), CTX-M-3(+); test: MIC of tested agent alone, microdilution; assay type: cell-based; details: Klebsiella pneumoniae; read-out: MIC of agent alone
Outline: as §2

[6] = system: K. pneumoniae ATCC BAA-1705 KPC-2(+); test: MIC of tested agent alone, microdilution; assay type: cell-based; details: Klebsiella pneumoniae, ATCCBAA1705; read-out: MIC of agent alone
Outline: as §2

[7] = system: P. aeruginosa MUW 700 AmpC(+); test: MIC of tested agent alone, microdilution; assay type: cell-based; details: Pseudomonas aeruginosa; read-out: MIC of agent alone
Outline: as §2

[8] = system: P. aeruginosa MUW 700 cAmpC-positive; test: combination disc test CDT-AmpC; assay type: cell-based; details: Pseudomonas aeruginosa, read-out: Diameter of inhibition zone, CAZ-30 disc with agent
[9] = system: E. coli 77 CMY-2-positive; test: combination disc test CDT-AmpC; assay type: cell-based; details: Escherichia coli, read-out: Diameter of inhibition zone, CAZ-30 disc with agent
[10] = system: K. pneumoniae ATCC 700603 ESBL-positive; test: combination disc test CDT-ESBL; assay type: cell-based; details: Klebsiella pneumoniae, ATCC700603, read-out: Diameter of inhibition zone, CAZ-30 disc with agent
[11] = system: P. aeruginosa MUW 700 cAmpC-positive; test: checkerboard microdilution, antibiotic plus tested agent; assay type: cell-based, Pseudomonas aeruginosa
Procedure: To examine the ability of tested agents to inhibit various carbapenemases and AmpC-enzymes, their synergy with antibiotics against β-lactamase-producing strains was assessed by checkerboard microdilution assay, with slight modification. Checkerboards were prepared in microtiter plates, with seven two-fold dilutions of β-lactams (1–64 mg/L) in the rows and three two-fold dilutions of tested agents and PBA (4–16 mg/L) in the columns. Tested agents’ concentrations were limited to the concentrations at which the newest commercially available BLIs (vaborbactam, relebactam, and avibactam) are used in susceptibility testing. Plates were inoculated and incubated as in the MIC microdilution assay. Parallel, MICs of tested agents and PBA alone were determined by the microdilution assay. Following the incubation, antibiotic MICs in the presence of each agent’s concentration were determined. Moreover, for the first well without growth found in each checkerboard row and column along the growth/non-growth interface, the fractional inhibitory concentration index (FICI) was calculated using the formula below:FICI = [(MIC of antibiotic in combination)/(MIC of antibiotic alone)] + [(MIC of the tested agent in combination)/(MIC of tested agent alone)].
For calculations, all off-scale MICs were converted to the next-highest doubling concentration. Subsequently, both the average and the lowest FICI were interpreted. The interpretation was as follows: FICI ≤ 0.5, synergy; 0.5 < FICI ≤ 4, indifference and FICI > 4, antagonism. Primarily, examined combinations consisted of meropenem (Pol-Aura, Morag, Poland) plus tested agents against carbapenemases-producing strains and ceftazidime (Pol-Aura, Morag, Poland) plus tested agents against AmpC-producing strains. For agents that reduced meropenem MIC at least 4-fold for at least two tested strains, similar assays were performed with imipenem (Pol-Aura, Morag, Poland) and ertapenem (Pol-Aura, Morag, Poland).

[12] = MTT-based viability assay; assay type: cell-based; details: human, MRC-5 human fibroblasts, 72 h, read-out: Viability of MRC-5 cells (% of viable cells ± SD)
Outline: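 MRC-5 human fibroblasts grown in MEME with 10% FBS at 37 °C, 5% CO2, tested by MTT with absorbance read at 570 nm. Viability given as percent of untreated control cells, in triplicate.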

[13] = 0.4 mg per disc, 9 mm disc (linezolid 0.03 mg, 6 mm disc), - no zone, read-out: Diameter of inhibition zone

Row | MIC (E. faecalis ATCC 29212) [µg/mL] | MIC [1] [µg/mL] | MIC (S. aureus ATCC 6538P) [µg/mL] | MIC [2] [µg/mL] | MIC [3] [µg/mL] | MIC (C. krusei ATCC 6258) [µg/mL] | MIC (E. coli 76 KPC-2(+)) [µg/mL] | MIC (E. coli 77 CMY-2(+)) [µg/mL] | MIC [4] [µg/mL] | MIC [5] [µg/mL] | MIC [6] [µg/mL] | MIC [7] [µg/mL] | Structure (SMILES) | Average FICI with ceftazidime [11] | Interpretation of the average FICI with ceftazidime [11] | Interpretation of the lowest FICI with ceftazidime [11] | The lowest FICI with ceftazidime [11] | viability at 72 h, 12.5 mg/L [12] [%] | viability at 72 h, 25 mg/L [12] [%] | viability at 72 h, 50 mg/L [12] [%] | other results
1 | 400 (≈ 1980 µM) | 100 (≈ 496 µM) | 50 (≈ 248 µM) | > 400 | > 400 | > 400 | 200 | 200 | 200 | 200 | 400 | > 400 | OB(O)c1cc(B(O)O)c(F)cc1F [2c] | 0.22 | S (FICI ≤ 0.5, synergy) | S (FICI ≤ 0.5, synergy) | 0.15 | 89.1 ± 0.5 | 83.6 ± 2.7 | 63.8 ± 2.5 | zone of inhibition at 0.4 mg/disc [1, 13]: 19 mm; zone of inhibition at 0.4 mg/disc (S. aureus ATCC 6538P; [13]): 20 mm; zone of inhibition at 100 µg/disc ([8]; agent 0.1 mg per disc): 20 mm; zone of inhibition at 100 µg/disc ([9]; agent 0.1 mg per disc): 19 mm; zone of inhibition at 100 µg/disc ([10]; agent 0.1 mg per disc): 13 mm
2 | > 400 | > 400 | > 400 | 200 (≈ 1090 µM) | 400 (≈ 2180 µM) | 100 (≈ 544 µM) | > 400 | > 400 | > 400 | > 400 | > 400 | > 400 | OB(O)c1cccc(F)c1B(O)O [3b] | 0.60 | I (0.5 < FICI ≤ 4, indifference) | S (FICI ≤ 0.5, synergy) | 0.27 | 98.1 ± 6.1 | 91.2 ± 13.5 | 87.1 ± 8 | zone of inhibition at 300 µg/disc ([8]; agent 0.3 mg per disc): 22 mm; zone of inhibition at 300 µg/disc ([9]; agent 0.3 mg per disc): 25 mm; zone of inhibition at 300 µg/disc ([10]; agent 0.3 mg per disc): 16 mm
